Some test systems named below: SR; LOX IMVI; M14; HCT-116; HCT-15; HOP-92; SF-295; NCI-H23; HCC 2998; HL-60; Malme-3M; NCI-H460; MDA-MB-435; 786-0; UO-31; IGROV-1; PC-3; SF-539; OVCAR-4; A498.
What all share (test): growth of human tumour cells (NCI), 48 h

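How tested: cells in 96-well plates exposed to compound for 48 hours at five concentrations. GI50 marks 50% less growth.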 Calls of active or inactive are those of the source. Rule as the data show it: active = GI50 up to about 1.1 µM and inactive = higher.

From ChEMBL document CHEMBL1201862, “PubChem BioAssay data set” (2004) come the findings set out here.

For the compound `O=C(/C=C/c1cccs1)c1cccc(C(=O)/C=C/c2cccs2)n1`, the GI50 in the test on SR was 2.26 µM (inactive); in the test with LOX IMVI it was 2.05 µM (inactive); in the test with M14, > 91.2 µM (inactive); in the test with HCT-116, 2.82 µM (inactive); in the test with HCT-15, 24 µM; with HOP-92, > 100 µM (inactive). Moreover, the GI50 in the test with SF-295 is 76 µM (inactive); in the test on NCI-H23, 31 µM (inactive); in the test on HCC 2998, > 100 µM (inactive); in the test on HL-60 it was 7.41 µM (inactive); with Malme-3M, > 100 µM (inactive); in the test with NCI-H460 it was > 100 µM (inactive). The GI50 with MDA-MB-435 was 52.7 µM (inactive); with 786-0, 6.81 µM (inactive); in the test on UO-31, 21.3 µM (inactive); with IGROV-1 it was 27.7 µM (inactive); in the test on PC-3, 36.3 µM (inactive); in the test on SF-539, 6 µM (inactive). For the same compound, the GI50 in the test on OVCAR-4 is > 100 µM (inactive).

Take `COC(=O)c1ccc(C)cc1C1CN=NC12Cc1cccc(C)c1C2=O` (configuration not stated): the GI50 in the test with SR was 82.8 µM (inactive); in the test on LOX IMVI it was 28.6 µM (inactive); in the test with M14 it was 19.6 µM (inactive); in the test on HCT-116, 42.3 µM (inactive); with HCT-15 it was 47.2 µM; in the test with HOP-92, 36.9 µM (inactive). Moreover, the GI50 is 50 µM (inactive) with SF-295; 64.9 µM (inactive) with NCI-H23; 42.2 µM (inactive) with HCC 2998; 20.2 µM (inactive) in the test on HL-60; 27.8 µM (inactive) with Malme-3M; 63 µM (inactive) in the test on NCI-H460. In addition, the GI50 in the test on MDA-MB-435 was 18.9 µM (inactive); in the test with 786-0 it was > 100 µM (inactive); in the test with UO-31, 26.7 µM (inactive); in the test on IGROV-1, 53.1 µM (inactive); in the test with PC-3 it was 22.5 µM (inactive); with SF-539 it was 90.4 µM (inactive). Further, the GI50 in the test with OVCAR-4 is 26.5 µM (inactive).

As to `CCOc1cc(CCNC)c2c(ccc3ccc(OC)c(O)c32)c1OC`, the GI50 was 4.44 µM (inactive) in the test with SR; 11.5 µM (inactive) in the test on LOX IMVI; 13.9 µM (inactive) in the test with M14; 10.4 µM (inactive) in the test on HCT-116; 17.5 µM with HCT-15; 12.1 µM (inactive) with HOP-92. In addition, the GI50 is 16.2 µM (inactive) with SF-295; 11.7 µM (inactive) in the test with NCI-H23; 15.5 µM (inactive) in the test on HCC 2998; 15 µM (inactive) in the test with HL-60; 6.92 µM (inactive) with Malme-3M; 14.1 µM (inactive) with NCI-H460. Further, the GI50 in the test with MDA-MB-435 is 12.6 µM (inactive); with 786-0, 17.5 µM (inactive); in the test on UO-31 it was 15.6 µM (inactive); with IGROV-1 it was 13.9 µM (inactive); in the test on PC-3, 13.2 µM (inactive); in the test on OVCAR-4 it was 13.7 µM (inactive).

Turning to `Cc1cc(C(O)CNC(C)CCn2cnc3c2c(=O)n(C)c(=O)n3C)ccc1O` (configuration not stated), the GI50 with SR is > 100 µM (inactive); in the test with LOX IMVI, > 100 µM (inactive); in the test with M14 it was > 100 µM (inactive); with HCT-116, > 100 µM (inactive); with HCT-15, over 100 µM; in the test with HOP-92 it was > 100 µM (inactive). Also, the GI50 in the test with SF-295, with NCI-H23, in the test on Malme-3M, in the test with NCI-H460, in the test on MDA-MB-435 and in the test with A498 was > 100 µM (inactive) in each case. The GI50 in the test on 786-0, in the test with UO-31, in the test with IGROV-1, in the test with PC-3, with SF-539 and in the test with OVCAR-4 was > 100 µM (inactive) in each case.

As to `O=C(NCCc1n[nH]c2c1C(=O)C=C(Nc1ccccc1)C2=O)OCc1ccccc1`, the GI50 in the test on SR is > 100 µM (inactive); in the test with LOX IMVI it was > 100 µM (inactive); in the test on M14, > 100 µM (inactive); in the test on HCT-116, 97.3 µM (inactive); in the test with HCT-15 it was over 100 µM; with HOP-92, > 100 µM (inactive). Further, the GI50 in the test with SF-295, in the test on NCI-H23, in the test on HL-60, with NCI-H460, with MDA-MB-435 and with A498 was > 100 µM (inactive) in each case. Also, the GI50 was 47.1 µM (inactive) in the test on 786-0; > 100 µM (inactive) with UO-31; > 100 µM (inactive) in the test with IGROV-1; > 100 µM (inactive) in the test on PC-3; > 100 µM (inactive) with SF-539; 66.4 µM (inactive) with OVCAR-4.

Take `CN(C(=O)Nc1ccc(Cl)c(Cl)c1)C1CCCC[C@@H]1N1CCCC1` (some centres not stated): the GI50 in the test on SR was 21 µM (inactive); with LOX IMVI, 30.3 µM (inactive); in the test with M14, 19.1 µM (inactive); in the test with HCT-116, 51.8 µM (inactive); with HCT-15 it was 41.4 µM; with HOP-92, 34.4 µM (inactive). Further, the GI50 with SF-295 was 84.7 µM (inactive); in the test on NCI-H23 it was > 100 µM (inactive); with Malme-3M, 22 µM (inactive); with NCI-H460, 36.6 µM (inactive); in the test on MDA-MB-435, 33 µM (inactive); in the test with A498 it was 24.2 µM (inactive). In addition, the GI50 is 48.6 µM (inactive) with 786-0; 19.3 µM (inactive) in the test on UO-31; 41.3 µM (inactive) in the test with IGROV-1; 41.4 µM (inactive) with PC-3; 41.9 µM (inactive) with OVCAR-4.

Regarding `O=C(O)C[C@@H]1[C@@H](O)[C@@H](O)CN2C(=O)c3ccccc3[C@H]12`, the GI50 in the test on SR was > 100 µM (inactive); in the test with LOX IMVI it was > 100 µM (inactive); in the test on M14, > 100 µM (inactive); in the test with HCT-116, > 100 µM (inactive); in the test on HCT-15, over 100 µM; in the test with SF-295 it was > 100 µM (inactive). Also, the GI50 with NCI-H23, with HCC 2998, in the test on Malme-3M, in the test with NCI-H460, in the test on MDA-MB-435 and in the test with A498 was > 100 µM (inactive) each time. The GI50 with 786-0, with UO-31, with IGROV-1, in the test with PC-3, with SF-539 and in the test on OVCAR-4 was > 100 µM (inactive) in each case.

For the compound `CC(CCc1ccccc1)NCC(O)n1c(/N=N/N(C)C)nc2c1c(=O)n(C)c(=O)n2C` (configuration not stated), the GI50 in the test on SR is 43.2 µM (inactive); in the test with LOX IMVI it was > 100 µM (inactive); in the test with M14, > 100 µM (inactive); with HCT-116, > 100 µM (inactive); in the test with HCT-15, over 100 µM; in the test on HOP-92, > 100 µM (inactive). Further, the GI50 in the test with SF-295 was > 100 µM (inactive); in the test with NCI-H23, > 100 µM (inactive); in the test with HL-60, 66.7 µM (inactive); in the test with Malme-3M, > 100 µM (inactive); in the test on NCI-H460, 41.1 µM (inactive); in the test with MDA-MB-435, > 100 µM (inactive). In addition, the GI50 with A498, in the test with 786-0, in the test with UO-31, with IGROV-1, in the test on PC-3 and in the test with SF-539 was > 100 µM (inactive) throughout. In the test on OVCAR-4, the GI50 is > 100 µM (inactive).

As to `CCCCCC[C@H]([C@H](C)O)n1cnc2c(N)ncnc21`, the GI50 in the test on SR was > 100 µM (inactive); in the test with LOX IMVI it was > 100 µM (inactive); in the test with M14, > 100 µM (inactive); in the test on HCT-116, > 100 µM (inactive); in the test on HCT-15, over 100 µM; in the test with HOP-92, > 100 µM (inactive). Also, the GI50 with SF-295 is > 100 µM (inactive); in the test on NCI-H23 it was > 100 µM (inactive); in the test on HCC 2998, > 100 µM (inactive); with HL-60, 50.9 µM (inactive); with Malme-3M, > 100 µM (inactive); in the test with NCI-H460, > 100 µM (inactive). The GI50 with MDA-MB-435 is > 100 µM (inactive); in the test with 786-0, > 100 µM (inactive); with UO-31, 91.8 µM (inactive); in the test with IGROV-1, > 100 µM (inactive); in the test with PC-3, > 100 µM (inactive); with SF-539 it was 57.4 µM (inactive). The GI50 with OVCAR-4 was > 100 µM (inactive).

In the case of `N#Cc1nc(-c2cc([N+](=O)[O-])cc([N+](=O)[O-])c2)oc1N`, the GI50 in the test on SR was > 10 µM (inactive); in the test on LOX IMVI, > 10 µM (inactive); in the test with M14, > 10 µM (inactive); with HCT-116, > 10 µM (inactive); in the test with HCT-15, over 10 µM; with HOP-92, > 10 µM (inactive). For the same compound, the GI50 with SF-295, in the test on NCI-H23, in the test on HCC 2998, in the test on HL-60, in the test with Malme-3M and with NCI-H460 was > 10 µM (inactive) throughout. Besides, the GI50 is > 10 µM (inactive) in the test on MDA-MB-435; > 10 µM (inactive) in the test with 786-0; 8.93 µM (inactive) in the test on UO-31; > 10 µM (inactive) with IGROV-1; > 10 µM (inactive) with PC-3; > 10 µM (inactive) with SF-539. Also, the GI50 in the test on OVCAR-4 was > 10 µM (inactive).

For `COc1ccc(-c2oc3cc(OC)c(OC)c(O)c3c(=O)c2OC)cc1`, the GI50 with SR is > 100 µM (inactive); with LOX IMVI, 53.5 µM (inactive); with M14 it was > 100 µM (inactive); in the test on HCT-116, > 100 µM (inactive); with HCT-15, 40.5 µM; in the test on HOP-92, 14.5 µM (inactive). The GI50 in the test with SF-295 is 20.8 µM (inactive); in the test on HCC 2998 it was > 100 µM (inactive); in the test on HL-60, 29.4 µM (inactive); in the test with Malme-3M it was > 100 µM (inactive); in the test on NCI-H460, > 100 µM (inactive); in the test with MDA-MB-435 it was > 100 µM (inactive). The GI50 in the test on 786-0 is 21.9 µM (inactive); in the test with UO-31 it was > 100 µM (inactive); with IGROV-1, 18.7 µM (inactive); in the test on PC-3, 39.8 µM (inactive); in the test with SF-539, 30.9 µM (inactive); in the test with OVCAR-4, 89.9 µM (inactive).
